Assay results as given in US6921770B2 (priority 2000, dated 2005).
Read-outs that look alike come from different tables or passages of the source.

Assays:
Pyricularia grisea = assay type: in vivo
rice blast fungi [1] = assay type: in vivo, Pyricularia grisea
rice blast fungi [2] = assay type: cell-based, Magnaporthe grisea

Compound | controlling effect on rice blast (Pyricularia grisea; 2 ppm) | controlling effect on rice blast (Pyricularia grisea; 10 ppm) | controlling effect on rice blast (Pyricularia grisea; 100 ppm) | Inhibiting Ratio (%) (at 250 ppm) (rice blast fungi [1]) | controlling effect on rice blast (Pyricularia grisea; 2 ppm, hydrochloride) | controlling effect on rice blast (Pyricularia grisea; 10 ppm, hydrochloride) | controlling effect on rice blast (Pyricularia grisea; 100 ppm, hydrochloride) | color of the medium (rice blast fungi [2])
2-(3-trifluoromethoxyphenylimino)-3-methyl-4-[N-methoxyphenyl)carbamoylmethyl]-1,3-thiazol-4-ine [Compound 339] | 80% | 95% | 96% | 98% |  |  |  | 
Br.Cn1c(CC(=O)Nc2ccccc2)csc1=Nc1ccc(F)cc1F [Compound 27, 2-(2,4-difluorophenylimino)-3-methyl-4-(N-phenylcarbamoylmethyl)-1,3-thiazol-4-ine hydrobromide] | 80% | 91% | 98% | 98% |  |  |  | 
Br.Cc1ccc(NC(=O)Cc2csc(=Nc3ccc(F)cc3F)n2C)cc1 [Compound 31, 2-(2,4-difluorophenylimino)-3-methyl-4-[N-(4-methylphenyl)carbamoylmethyl]-1,3-thiazol-4-ine hydrobromide] | 80% | 91% | 100% | 100% |  |  |  | 
Cl.Cn1c(CC(=O)Nc2ccc(Cl)cc2)csc1=Nc1ccc(C#N)cc1 [Compound 128, 2-(4-cyanophenylimino)-3-methyl-4-[N-(4-chlorophenyl)carbamoylmethyl]-1,3-thiazol-4-ine hydrochloride] | 85% | 100% | 100% | 98% |  |  |  | 
Cl.Cn1c(CC(=O)Nc2ccccc2F)csc1=Nc1ccc(Br)cc1 [Compound 152, 2-(4-bromophenylimino)-3-methyl-4-[N-(2-fluorophenyl)carbamoylmethyl]-1,3-thiazol-4-ine hydrochloride] | 70% | 85% | 99% | 100% |  |  |  | 
CCCCc1ccc(N=c2scc(CC(=O)Nc3ccc(OC)cc3)n2C)cc1.Cl [Compound 197, 2-[4-(n-butyl)phenylimino]-3-methyl-4-[N-(4-methoxyphenyl)carbamoylmethyl]-1,3-thiazol-4-ine hydrochloride] | 83% | 98% | 95% | 95% |  |  |  | 
COc1ccc(NC(=O)Cc2csc(=Nc3cccc(Br)c3)n2C)cc1.Cl [Compound 201, 2-(3-bromophenylimino)-3-methyl-4-[N-(4-methoxyphenyl)carbamoylmethyl]-1,3-thiazol-4-ine hydrochloride] | 87% | 99% | 97% | 97% |  |  |  | 
COc1ccc(NC(=O)Cc2csc(=Nc3ccc(F)c(Cl)c3)n2C)cc1.Cl [Compound 202, 2-(3-chloro-4-fluorophenylimino)-3-methyl-4-[N-(4-methoxyphenyl)carbamoylmethyl]-1,3-thiazol-4-ine hydrochloride] | 93% | 98% | 95% | 95% |  |  |  | 
COc1ccc(NC(=O)Cc2csc(=Nc3cccc(F)c3)n2C)cc1.Cl [Compound 203, 2-(3-fluorophenylimino)-3-methyl-4-[N-(4-methoxyphenyl)carbamoylmethyl]-1,3-thiazol-4-ine hydrochloride] | 93% | 99% | 93% | 93% |  |  |  | 
COc1ccc(NC(=O)Cc2csc(=Nc3ccc(C(F)(F)F)cc3)n2C)cc1.Cl [Compound 205, 2-(4-trifluoromethylphenylimino)-3-methyl-4-[N-(4-methoxyphenyl)carbamoylmethyl]-1,3-thiazol-4-ine hydrochloride] | 93% | 98% | 97% | 97% |  |  |  | 
COc1ccc(NC(=O)Cc2csc(=Nc3ccc(F)cc3F)n2C)cc1.Cl [Compound 206, 2-(2,4-difluorophenylimino)-3-methyl-4-[N-(4-methoxyphenyl)carbamoylmethyl]-1,3-thiazol-4-ine hydrochloride] | 93% | 97% | 93% | 93% |  |  |  | 
CCCCc1ccc(N=c2scc(CC(=O)Nc3ccc(C)c(Cl)c3)n2C)cc1.Cl [Compound 234, 2-[4-(n-butyl)phenylimino]-3-methyl-4-(N-[3-chloro-4-methylphenyl)carbamoylmethyl]-4-thiazoline hydrochloride] | 75% | 92% | 97% | 97% |  |  |  | 
Br.COc1ccc(NC(=O)Cc2csc(=Nc3ccc(C#N)cc3)n2C)cc1 [Compound 323, 2-(4-cyanophenylimino)-3-methyl-4-[N-(4-methoxyphenyl)carbamoylmethyl]-1,3-thiazol-4-ine hydrobromide] | 75% | 100% | 100% | 97% |  |  |  | 
Br.COc1ccc(NC(=O)Cc2csc(=Nc3cccc(C)c3)n2C)cc1 [Compound 328, 2-(3-methylphenylimino)-3-methyl-4-[N-(4-methoxyphenyl)carbamoylmethyl]-1,3-thiazol-4-ine hydrobromide] |  |  |  | 97% |  |  |  | 
Cn1c(CC(=O)Nc2ccc(Cl)cc2)csc1=Nc1ccc(C#N)cc1 [Compound 329, 2-(4-cyanophenylimino)-3-methyl-4-[N-(4-chlorophenyl)carbamoylmethyl]-1,3-thiazol-4-ine] |  |  |  | 100% |  |  |  | 
COc1ccc(NC(=O)Cc2csc(=Nc3ccc(C#N)cc3)n2C)cc1 [Compound 330, 2-(4-cyanophenylimino)-3-methyl-4-[N-(4-methoxyphenyl)carbamoylmethyl]-1,3-thiazol-4-ine] |  |  |  | 100% |  |  |  | 
Cn1c(CC(=O)Nc2ccccc2)csc1=Nc1ccc(F)cc1F [Compound 331, 2-(2,4-difluorophenylimino)-3-methyl-4-[N-phenylcarbamoylmethyl]-1,3-thiazol-4-ine] |  |  |  | 96% |  |  |  | 
Cc1ccc(NC(=O)Cc2csc(=Nc3ccc(F)cc3F)n2C)cc1 [Compound 332, 2-(2,4-difluorophenylimino)-3-methyl-4-[N-(4-methylphenyl)carbamoylmethyl]-1,3-thiazol-4-ine] |  |  |  | 100% |  |  |  | 
Cc1cccc(NC(=O)Cc2csc(=Nc3cc(OC(C)C)c(Cl)cc3F)n2C)c1 [Compound 333, 2-(2-fluoro-4-chloro-5-isopropoxyphenylimino)-3-methyl-4-[N-(3-methylphenyl)carbamoylmethyl]-1,3-thiazol-4-ine] |  |  |  | 98% |  |  |  | 
CCCCc1ccc(N=c2scc(CC(=O)Nc3ccc(OC)cc3)n2C)cc1 [Compound 334, 2-[4-(n-butyl)phenylimino]-3-methyl-4-[N-(4-methoxyphenyl)carbamoylmethyl]-1,3-thiazol-4-ine] |  |  |  | 96% |  |  |  | 
COc1ccc(NC(=O)Cc2csc(=Nc3cccc(Br)c3)n2C)cc1 [Compound 335, 2-(3-bromophenylimino)-3-methyl-4-[N-(methoxyphenyl)carbamoylmethyl]-1,3-thiazol-4-ine] | 72% | 95% | 94% | 99% |  |  |  | 
CCc1ccc(NC(=O)Cc2csc(=Nc3ccc(C#N)cc3)n2C)cc1.Cl [Compound 341, 2-(4-cyanophenylimino)-3-methyl-4-[N-(4-ethylphenyl)carbamoylmethyl]-1,3-thiazol-4-ine hydrochloride] |  |  |  |  | 96% | 98% | 93% | 
Cc1ccc(NC(=O)Cc2csc(=Nc3cc(OC(C)C)c(Cl)cc3F)n2C)cc1.Cl [Compound 342] | 90% | 98% | 92% |  |  |  |  | 
COc1ccc(NC(=O)Cc2csc(=Nc3ccc(C(F)(F)F)cc3)n2C)cc1F.Cl [Compound 343, 2-(4-trifluoromethylphenylimino)-3-methyl-4-[N-(3-fluoro-4-methoxyphenyl)carbamoylmethyl]-1,3-thiazol-4-ine hydrochloride] | 90% | 94% | 98% |  |  |  |  | 
COc1ccc(NC(=O)Cc2csc(=Nc3ccc(C#N)cc3)n2C)cc1F.Cl [Compound 344, 2-(4-cyanophenylimino)-3-methyl-4-[N-(3-fluoro-4-methoxyphenyl)carbamoylmethyl]-1,3-thiazol-4-ine hydrochloride] | 83% | 97% | 98% |  |  |  |  | 
CCc1ccc(NC(=O)Cc2csc(=Nc3ccc(C#N)cc3)n2C)cc1.Cl [Compound 345, 2-(4-cyanophenylimino)-3-methyl-4-[N-(4-ethylphenyl)carbamoylmethyl]-1,3-thiazol-4-ine hydrochloride] |  |  |  |  | 70% | 94% | 97% | 
CCc1ccc(NC(=O)Cc2csc(=Nc3ccc(C(F)(F)F)cc3)n2C)cc1.Cl [Compound 346, 2-(4-trifluoromethylphenylimino)-3-methyl-4-[N-(4-ethylphenyl)carbamoylmethyl]-1,3-thiazol-4-ine hydrochloride] | 79% | 96% | 99% |  |  |  |  | 
Cc1cccc2sc3nncn3c12 [tricyclazole, reference compound] |  |  |  |  |  |  |  | red
